From US12643887B2, “Heterocyclic derivatives with cardiomyocyte proliferation activity for treatment of heart diseases” (Tongji University, priority 2019, dated 2026)
One block for each compound: values may come before it.

What was measured:
human GSK3 beta = biological target: T1, human GSK3 beta (Homo sapiens, UniProt P49841); assay: GSK3 beta enzyme assay (ADP-Glo); format: biochemical; conditions: ATP 25 μM, read-out: GSK3b IC50
T1 construct: Recombinant full-length human GSK3 beta (expressed in Sf9 insect cells with an N-terminal His tag); His (N); purchased SignalChem G09-10H; host or cells: Sf9 insect cells
T1 sequence (P49841 whole entry): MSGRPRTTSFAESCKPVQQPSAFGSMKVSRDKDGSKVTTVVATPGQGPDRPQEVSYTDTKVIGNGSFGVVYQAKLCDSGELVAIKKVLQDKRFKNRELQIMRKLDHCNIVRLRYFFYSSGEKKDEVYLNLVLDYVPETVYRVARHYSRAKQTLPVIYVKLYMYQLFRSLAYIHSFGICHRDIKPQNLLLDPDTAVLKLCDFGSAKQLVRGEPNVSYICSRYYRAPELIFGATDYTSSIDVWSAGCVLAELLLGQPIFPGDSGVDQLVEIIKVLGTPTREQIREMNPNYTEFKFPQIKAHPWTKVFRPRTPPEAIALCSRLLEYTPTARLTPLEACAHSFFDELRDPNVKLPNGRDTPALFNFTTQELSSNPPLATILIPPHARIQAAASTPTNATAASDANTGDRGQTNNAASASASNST
Protocol: 1. GSK3 Beta Enzyme Assay
The ability of compounds to inhibit human GSK3 beta kinase activities was determined using a commercially available ADP-Glo™ Kinase Assay kit (Promega, Cat #V9102) according to the manufacturer's protocol. The ADP-Glo™ Kinase Assay is a luminescent ADP detection assay that provides a universal, homogeneous, high-throughput screening method to measure kinase activity by quantifying the amount of ADP produced during a kinase reaction. The ADP-Glo™ Kinase Assay can be used to monitor the activity of virtually any ADP-generating enzymes (e.g., kinases or ATPases).
Recombinant full-length human GSK3 beta (expressed in Sf9 insect cells with an N-terminal His tag) was purchased from SignalChem (Cat #G09-10H). The GSK3 substrate peptide (sequence: […](pS)EDEEE) was purchased from SignalChem (Cat #G50-58). This assay, run in a 384-well plate format, is a generic method for measuring kinase activities using an ADP-Glo Kinase Assay Kit. The basic assay procedure involves two steps: (1) Enzymatic step: inhibitors are incubated with the kinase and then ATP (included in the ADP-Glo Kinase Assay Kit) and the GSK3 substrate peptide are added to start the enzymatic reaction; (2) Detection step: after the kinase reaction, first ADP-Glo™ Reagent is added to terminate the kinase reaction and deplete the remaining ATP. Second, the Kinase Detection Reagent is added to simultaneously convert ADP to ATP and allow the newly synthesized ATP to be measured using a luciferase/luciferin reaction. The light generated is measured using a luminometer.
(§1) Briefly, GSK3 beta (4 nM) in the enzymatic buffer solutions (40 mM Tris, pH 7.5, 20 mM MgCl2, 0.1 mg/ml BSA, 50 μM DTT) were mixed with various concentrations of inhibitors (dissolved in 100% DMSO). These solutions were incubated for 30 minutes at 25° C., and subsequently a mixture of substrate peptide and ATP was added with the final peptide and ATP concentrations at 13 μM and 25 μM, respectively. The final reaction mixture of enzyme-substrate-ATP-compound was incubated for 60 minutes at 25° C.
Afterwards ADP-Glo™ Reagent was added and the mixture was incubated at 25° C. for 60 minutes. Then Kinase Detection Reagent was added and the final mixture was incubated at 25° C. for 60 minutes. The luminescence signal of the final solution was measured on an Envision instrument (PerkinElmer). The percent (%) inhibition at each concentration of a compound is calculated relative to the luminescence signal in the Max and Min control wells contained within each assay plate. […] The concentrations and percent inhibition values for a test compound are plotted and the concentration of the compound required to achieve 50% inhibition (IC50) is determined with a four-parameter logistic dose response equation.

human CK2a2 (CSNK2a2) = biological target: T2, human CK2a2 (CSNK2a2) (Homo sapiens, UniProt P19784); assay: CK2a2 (CSNK2a2) enzyme assay (ADP-Glo); format: biochemical; conditions: ADP-Glo, ATP 15 μM; read-out: CK2 alpha 2 IC50
T2 construct: Recombinant human CK2a2 (CSNK2a2) (full length); GST (N); purchased SignalChem C71-10G; host or cells: Sf9 insect cells
T2 sequence (P19784 whole entry): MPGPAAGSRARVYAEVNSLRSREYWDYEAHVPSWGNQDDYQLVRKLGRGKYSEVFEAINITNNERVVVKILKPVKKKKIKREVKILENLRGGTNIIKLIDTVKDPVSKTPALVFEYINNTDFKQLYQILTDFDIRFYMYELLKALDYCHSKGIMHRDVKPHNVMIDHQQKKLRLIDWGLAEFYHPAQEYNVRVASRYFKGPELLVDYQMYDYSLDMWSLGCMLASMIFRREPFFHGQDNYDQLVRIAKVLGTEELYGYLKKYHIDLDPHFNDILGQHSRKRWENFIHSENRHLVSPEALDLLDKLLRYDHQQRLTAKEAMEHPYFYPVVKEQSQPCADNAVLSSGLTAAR
Protocol: 8. CK2a2 (CSNK2a2) Enzyme Assay
The ability of compounds to inhibit human CK2a2 (CSNK2a2) kinase activities was determined using a commercially available ADP-Glo™ Kinase Assay kit (Promega, Cat #V9102) according to the manufacturer's protocol.
Recombinant human CK2a2 (CSNK2a2) (full length) (expressed in Sf9 insect cells with an N-terminal GST tag) was purchased from SignalChem (Cat #C71-10G). CK2 substrate (sequence: […]) was purchased from SignalChem (Cat #C08-58). This assay, run in a 384-well plate format, is a generic method for measuring kinase activities using an ADP-Glo Kinase Assay Kit. The basic assay procedure involves two steps: (1) Enzymatic step: inhibitors are incubated with the kinase and then ATP (included in the ADP-Glo Kinase Assay Kit) and the MBP protein are added to start the enzymatic reaction; (2) Detection step: after the kinase reaction, first ADP-Glo™ Reagent is added to terminate the kinase reaction and deplete the remaining ATP. Second, the Kinase Detection Reagent is added to simultaneously convert ADP to ATP and allow the newly synthesized ATP to be measured using a luciferase/luciferin reaction. The light generated is measured using a luminometer.
as §1, with “Briefly, CK2a2 (CSNK2a2) (7” for “Briefly, GSK3 beta (4”, “at 0.04 mg/ml” for “at 13 μM”, “and 15” for “and 25”, “for 90” for “for 60”
Afterwards ADP-Glo™ Reagent was added and the mixture was incubated at 25° C. for 60 minutes. Then Kinase Detection Reagent was added, and the final mixture was incubated at 25° C. for 60 minutes. The luminescence signal of the final solution was measured on an Envision instrument (PerkinElmer). The percent (%) inhibition at each concentration of a compound is calculated relative to the luminescence signal in the Max and Min control wells contained within each assay plate. […] The concentrations and percent inhibition values for a test compound are plotted and the concentration of the compound required to achieve 50% inhibition (IC50) is determined with a four-parameter logistic dose response equation.

Structure (SMILES): CN(C1=N/C(=C\c2ccc3ncsc3c2)C(=O)N1)c1ccccc1 [Example 7, (Z)-5-(benzo[d]thiazol-6-ylmethylene)-2-(methyl(phenyl)amino)-3,5-dihydro-4H-imidazol-4-one]
IC50 (human GSK3 beta): 1000 to 10000 nM | IC50 (human CK2a2 (CSNK2a2)): 100 to 1000 nM

Structure (SMILES): CN(CC1CC1)C1=N/C(=C\c2ccc3c(c2)OCO3)C(=O)N1 [Example 11, (Z)-5-(benzo[d][1,3]dioxol-5-ylmethylene)-2-((cyclopropylmethyl)(methyl)amino)-3,5-dihydro-4H-imidazol-4-one]
IC50 (human GSK3 beta): > 10000 nM | IC50 (human CK2a2 (CSNK2a2)): 100 to 1000 nM

Structure (SMILES): COc1ccccc1N(C)C1=N/C(=C\c2ccc3c(c2)OCO3)C(=O)N1 [Example 21, (Z)-5-(benzo[d][1,3]dioxol-5-ylmethylene)-2-((2-methoxyphenyl)(methyl)amino)-3,5-dihydro-4H-imidazol-4-one]
IC50 (human GSK3 beta): > 10000 nM | IC50 (human CK2a2 (CSNK2a2)): 1000 to 10000 nM

Structure (SMILES): O=C1NC(N(Cc2ccccc2)c2ccccc2)=N/C1=C\c1ccc2c(c1)OCO2 [Example 22, (Z)-5-(benzo[d][1,3]dioxol-5-ylmethylene)-2-(benzyl(phenyl)amino)-3,5-dihydro-4H-imidazol-4-one]
IC50 (human GSK3 beta): > 10000 nM | IC50 (human CK2a2 (CSNK2a2)): > 10000 nM

Structure (SMILES): CN(Cc1ccccc1)C1=N/C(=C\c2ccc3c(c2)OCO3)C(=O)N1 [Example 23, (Z)-5-(benzo[d][1,3]dioxol-5-ylmethylene)-2-(benzyl(methyl)amino)-3,5-dihydro-4H-imidazol-4-one]
IC50 (human GSK3 beta): > 10000 nM | IC50 (human CK2a2 (CSNK2a2)): > 10000 nM

Structure (SMILES): CN(C1=N/C(=C\c2ccc3c(c2)OCO3)C(=O)N1)c1ccc(N)cc1 [Example 37, (Z)-2-((4-aminophenyl)(methyl)amino)-5-(benzo[d][1,3]dioxol-5-ylmethylene)-3,5-dihydro-4H-imidazol-4-one]
IC50 (human GSK3 beta): > 10000 nM | IC50 (human CK2a2 (CSNK2a2)): 100 to 1000 nM

Structure (SMILES): O=C1/C(=C/c2ccc3ncsc3c2)N=C(N(Cc2ccccc2)c2ccccc2)N1Cc1ccccc1 [Example 42, (Z)-5-(benzo[d]thiazol-6-ylmethylene)-3-benzyl-2-(benzyl(phenyl)amino)-3,5-dihydro-4H-imidazol-4-one]
IC50 (human GSK3 beta): > 10000 nM | IC50 (human CK2a2 (CSNK2a2)): > 10000 nM

Structure (SMILES): CC(C)NC1=N/C(=C\c2ccc3ncsc3c2)C(=O)N1C [Example 45, (Z)-5-(benzo[d]thiazol-6-ylmethylene)-2-(isopropylamino)-3-methyl-3,5-dihydro-4H-imidazol-4-one]
IC50 (human GSK3 beta): 1000 to 10000 nM | IC50 (human CK2a2 (CSNK2a2)): 1000 to 10000 nM

Structure (SMILES): Cn1cnc2ccc(/C=C3\N=C(Nc4ccccc4)NC3=O)cc21 [Example 46, (Z)-5-((1-methyl-1H-benzo[d]imidazol-6-yl)methylene)-2-(phenylamino)-3,5-dihydro-4H-imidazol-4-one]
IC50 (human GSK3 beta): 100 to 1000 nM | IC50 (human CK2a2 (CSNK2a2)): < 100 nM

Structure (SMILES): O=C1NC(Nc2ccccc2)=N/C1=C\c1ccc2occc2c1 [Example 52, (Z)-5-(benzofuran-5-ylmethylene)-2-(phenylamino)-3,5-dihydro-4H-imidazol-4-one]
IC50 (human GSK3 beta): > 10000 nM | IC50 (human CK2a2 (CSNK2a2)): > 10000 nM

Structure (SMILES): O=C1NC(Nc2ccccc2)=N/C1=C\c1ccc2ncccc2c1 [Example 53, (Z)-2-(phenylamino)-5-(quinolin-6-ylmethylene)-3,5-dihydro-4H-imidazol-4-one]
IC50 (human GSK3 beta): > 10000 nM | IC50 (human CK2a2 (CSNK2a2)): > 10000 nM

Results, then the compound that gave them:

IC50 (human GSK3 beta): 1000 to 10000 nM | IC50 (human CK2a2 (CSNK2a2)): 100 to 1000 nM
Structure (SMILES): O=C1NC(N(CCO)c2ccccc2)=N/C1=C\c1ccc2c(c1)OCO2 [Example 13, (Z)-5-(benzo[d][1,3]dioxol-5-ylmethylene)-2-((2-hydroxyethyl)(phenyl)amino)-3,5-dihydro-4H-imidazol-4-one]

IC50 (human GSK3 beta): > 10000 nM | IC50 (human CK2a2 (CSNK2a2)): 100 to 1000 nM
Structure (SMILES): COc1ccc(N(C)C2=N/C(=C\c3ccc4ncsc4c3)C(=O)N2)cc1 [Example 38, (Z)-5-(benzo[d]thiazol-6-ylmethylene)-2-((4-methoxyphenyl)(methyl)amino)-3,5-dihydro-4H-imidazol-4-one]

IC50 (human GSK3 beta): > 10000 nM | IC50 (human CK2a2 (CSNK2a2)): > 10000 nM
Structure (SMILES): O=C1NC(Nc2ccc(Cl)cc2)=N/C1=C\c1ccc2ncsc2c1 [Example 40, (Z)-5-(benzo[d]thiazol-6-ylmethylene)-2-((4-chlorophenyl)amino)-3,5-dihydro-4H-imidazol-4-one]

IC50 (human GSK3 beta): 1000 to 10000 nM | IC50 (human CK2a2 (CSNK2a2)): 100 to 1000 nM
Structure (SMILES): CN(C1=N/C(=C\c2ccc3ncsc3c2)C(=O)N1)c1ccc(N)cc1 [Example 44, (Z)-2-((4-aminophenyl)(methyl)amino)-5-(benzo[d]thiazol-6-ylmethylene)-3,5-dihydro-4H-imidazol-4-one]

IC50 (human GSK3 beta): > 10000 nM | IC50 (human CK2a2 (CSNK2a2)): > 10000 nM
Structure (SMILES): O=C1NC(Nc2ccc3ncsc3c2)=N/C1=C\c1ccc2c(c1)OCO2 [Example 47, (Z)-5-(benzo[d][1,3]dioxol-5-ylmethylene)-2-(benzo[d]thiazol-6-ylamino)-3,5-dihydro-4H-imidazol-4-one]

IC50 (human GSK3 beta): > 10000 nM | IC50 (human CK2a2 (CSNK2a2)): < 100 nM
Structure (SMILES): O=C1NC(Nc2ccc3ncsc3c2)=N/C1=C\c1ccc2ncsc2c1 [Example 48, (Z)-2-(benzo[d]thiazol-6-ylamino)-5-(benzo[d]thiazol-6-ylmethylene)-3,5-dihydro-4H-imidazol-4-one]

IC50 (human GSK3 beta): > 10000 nM | IC50 (human CK2a2 (CSNK2a2)): 100 to 1000 nM
Structure (SMILES): CN(C1=N/C(=C\c2ccc3c(c2)OCO3)C(=O)N1)c1ccc2ncsc2c1 [Example 70, (Z)-5-(benzo[d][1,3]dioxol-5-ylmethylene)-2-(benzo[d]thiazol-6-yl(methyl)amino)-3,5-dihydro-4H-imidazol-4-one]

IC50 (human GSK3 beta): 100 to 1000 nM | IC50 (human CK2a2 (CSNK2a2)): < 100 nM
Structure (SMILES): O=C1NC(Nc2ccc3nccnc3c2)=N/C1=C\c1ccc2ncsc2c1 [Example 82, (Z)-5-(benzo[d]thiazol-6-ylmethylene)-2-(quinoxalin-6-ylamino)-3,5-dihydro-4H-imidazol-4-one]

IC50 (human GSK3 beta): 1000 to 10000 nM | IC50 (human CK2a2 (CSNK2a2)): 100 to 1000 nM
Structure (SMILES): CN(C1=N/C(=C\c2ccc3ncsc3c2)C(=O)N1)c1ccc2ncsc2c1 [Example 83, (Z)-2-(benzo[d]thiazol-6-yl(methyl)amino)-5-(benzo[d]thiazol-6-ylmethylene)-3,5-dihydro-4H-imidazol-4-one]

IC50 (human GSK3 beta): 1000 to 10000 nM | IC50 (human CK2a2 (CSNK2a2)): 100 to 1000 nM
Structure (SMILES): CN(C1=N/C(=C\c2ccc3c(c2)OCCO3)C(=O)N1)c1ccc2ncsc2c1 [Example 84, (Z)-2-(benzo[d]thiazol-6-yl(methyl)amino)-5-((2,3-dihydrobenzo[b][1,4]dioxin-6-yl)methylene)-3,5-dihydro-4H-imidazol-4-one]

IC50 (human GSK3 beta): 1000 to 10000 nM | IC50 (human CK2a2 (CSNK2a2)): 100 to 1000 nM
Structure (SMILES): NC1=N/C(=C\c2ccc3ncsc3c2)C(=O)N1 [Example 103, (Z)-2-amino-5-(benzo[d]thiazol-6-ylmethylene)-3,5-dihydro-4H-imidazol-4-one]
